Laboratory results as given in patent publication US9732087B2, “Diamino-pyridine, pyrimidine, and pyridazine modulators of the histamine H4 receptor” (JANSSEN PHARMACEUTICA NV, priority 2008, dated 2017).
Where a name gives a salt, the structure may show the parent alone. Read-outs that look alike come from different tables or passages of the source.

Biological target: human H4 receptor (Homo sapiens (Human), UniProt Q9H3N8)
Experiment: Binding assay on recombinant human histamine H4 receptor ([3H]histamine competition, SK-N-MC cell membranes)
Settings: [3H]histamine 10 nM, average of results
Outline: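 Membranes from SK-N-MC cells stably or transiently transfected with human H4 receptor, prepared by homogenization and 30,000 g centrifugation in Tris/EDTA. Bound [3H]histamine separated by rapid filtration on PEI-treated GF/C filters, washed with ice-cold Tris/EDTA, counted by scintillation. '>' values denote highest concentration tested.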

[1] = membranes harvested with cell harvester, read-out: Cell Harvester Ki
[2] = membranes harvested with 96 well Brandel system, read-out: Brandel Ki

Chain of human H4 receptor (Q9H3N8 whole entry): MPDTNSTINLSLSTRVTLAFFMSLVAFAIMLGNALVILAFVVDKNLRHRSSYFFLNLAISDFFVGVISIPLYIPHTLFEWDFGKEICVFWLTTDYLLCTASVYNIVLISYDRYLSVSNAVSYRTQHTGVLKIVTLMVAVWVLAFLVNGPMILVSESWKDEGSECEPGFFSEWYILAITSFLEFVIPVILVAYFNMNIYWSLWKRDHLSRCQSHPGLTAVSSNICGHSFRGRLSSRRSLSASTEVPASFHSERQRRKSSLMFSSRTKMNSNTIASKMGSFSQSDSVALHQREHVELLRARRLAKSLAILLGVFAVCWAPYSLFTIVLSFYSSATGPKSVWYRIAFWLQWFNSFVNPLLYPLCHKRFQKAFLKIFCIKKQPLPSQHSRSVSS

Structure (SMILES) | Ki [1] [nM] | Ki [2] [nM]
CN1CCN(c2cnnc(NC3CC4CCC3C4)c2)CC1 (stereo not shown) [Example 406, N-Bicyclo[2.2.1]hept-2-yl-5-(4-methylpiperazin-1-yl)pyridazin-3-amine] | 178 | –
CN[C@H]1CCN(c2cnnc(NC3CC3)c2)C1 [Example 395, N-Cyclopropyl-5-[(3S)-3-(methylamino)pyrrolidin-1-yl]pyridazin-3-amine] | 1900 | –
CSCCNc1nccc(N2CCN(C)CC2)n1 [Example 164, 4-(4-Methylpiperazin-1-yl)-N-[2-(methylsulfanyl)ethyl]pyrimidin-2-amine] | 36.2 | –
CN[C@H]1CCN(c2cnnc(NCCCO)c2)C1 [Example 403, 3-({5-[(3S)-3-(Methylamino)pyrrolidin-1-yl]pyridazin-3-yl}amino)propan-1-ol] | > 10000 | –
CN[C@@H]1CCN(c2ccnc(NC3CC3)c2)C1 [Example 8, N-Cyclopropyl-4-[(3R)-3-(methylamino)pyrrolidin-1-yl]pyridin-2-amine dihydrochloride] | 10.6 | –
COCCNc1cc(N2CCN(C)CC2)ccn1 [Example 239, N-(2-Methoxyethyl)-4-(4-methylpiperazin-1-yl)pyridin-2-amine] | 701 | –
NC1CN(c2ccnc(NC[C@H]3CCCO3)n2)C1 [Example 94, 4-(3-Aminoazetidin-1-yl)-N-[(2R)-tetrahydrofuran-2-ylmethyl]pyrimidin-2-amine] | 868 | –
c1ccc(CNc2cc(N3CCNCC3)ccn2)nc1 [Example 260, 4-Piperazin-1-yl-N-(pyridin-2-ylmethyl)pyridin-2-amine] | > 10000 | –
CN[C@H]1CCN(c2cnnc(NCc3ccc(F)cc3)c2)C1 [Example 399, N-(4-Fluorobenzyl)-5-[(3S)-3-(methylamino)pyrrolidin-1-yl]pyridazin-3-amine] | 3940 | –
CN[C@@H]1CCN(c2ccnc(NCc3ccc(OC)cc3)n2)C1 [Example 176, N-(4-Methoxybenzyl)-4-[(3R)-30(methylamino)pyrrolidin-1-yl]pyrimidin-2-amine] | 458 | –
CN1CCN(c2ccnc(NCC3CCCC3)c2)CC1 [Example 236, N-(Cyclopentylmethyl)-4-(4-methylpiperazin-1-yl)pyridin-2-amine] | 47.4 | –
CCCCNc1cc(N2CC[C@@H](N)C2)ccn1 [Example 254, 4-[(3R)-3-Aminopyrrolidin-1-yl]-N-butylpyridin-2-amine] | 27.5 | –
CC(C)CNc1cc(N2CC[C@H](N)C2)ccn1 [Example 14, 4-[(3S)-3-Aminopyrrolidin-1-yl]-N-(2-methylpropyl)pyridin-2-amine] | 114 | –
CN[C@H]1CCN(c2ccnc(NC3C4CC5CC(C4)CC3C5)c2)C1 (stereo partly drawn) [Example 215, Adamantan-2-yl-[4-(3S)-(3-methylamino-pyrrolidin-1-yl)-pyridin-2-yl]-amine] | 69.6 | –
c1cc(N2C[C@H]3CCN[C@H]3C2)cc(NC23CC4CC(CC(C4)C2)C3)n1 [Example 296, Adamantan-1-yl-[4-(3aR,6aR)-(hexahydro-pyrrolo[3,4-b]pyrrol-5-yl)-pyridin-2-yl]-amine] | 64.2 | –
CN1CCN(c2ccnc(NCc3ccc(F)cc3)c2)CC1 [Example 249, N-(4-Fluorobenzyl)-4-(4-methylpiperazin-1-yl)pyridin-2-amine] | 257 | –
CN[C@@H]1CCN(c2cnnc(N[C@H]3C[C@H]4C[C@@H]([C@@H]3C)C4(C)C)c2)C1 [Example 97, 5-[(3R)-3-(Methylamino)pyrrolidin-1-yl]-N-[(1S,2S,3S,5R)-2,6,6-trimethylbicyclo[3.1.1]hept-3-yl]pyridazin-3-amine] | 5.9 | 5.9
NC1CCN(c2cnnc(NCCCO)c2)C1 (stereo in doubt) [Example 338, 3-({5-[(3S)-3-Aminopyrrolidin-1-yl]pyridazin-3-yl}amino)propan-1-ol] | > 10000 | –
c1nnc(NC2CCCC2)cc1N1CCNCC1 [Example 354, N-Cyclopentyl-5-piperazin-1-ylpyridazin-3-amine] | 2130 | –
CC(C)Nc1nccc(N2CCN(C)CC2)n1 [Example 53, N-(1-Methylethyl)-4-(4-methylpiperazin-1-yl)pyrimidin-2-amine] | 85.7 | 24.3
CNC1CN(c2ccnc(NCC(C)C)n2)C1 [Example 171, 4-[3-(Methylamino)azetidin-1-yl]-N-(2-methylpropyl)pyrimidin-2-amine] | 3.89 | –
N[C@@H]1CCN(c2ccnc(NCC3CC3)n2)C1 [Example 24] | 3.32 | –
CN1CCN(c2ccnc(NCCCO)n2)CC1 [Example 161, 3-{[4-(4-Methylpiperazin-1-yl)pyrimidin-2-yl]amino}propan-1-ol] | 1300 | –
C[C@@H](Nc1nccc(N2C[C@H]3CCN[C@H]3C2)n1)c1ccccc1 [Example 141, 4-[(3aR,6aR)-Hexahydropyrrolo[3,4-b]pyrrol-5(1H)-yl]-N-[(1R)-1-phenylethyl]pyrimidin-2-amine] | 2320 | –

Structure (SMILES) | Ki [1] [nM] | Ki [2] [nM]
CN[C@@H]1CCN(c2ccnc(NCc3ccc(F)cc3)n2)C1 [Example 79, (4-Fluoro-benzyl)-[4-(3R)-(3-methylamino-pyrrolidin-1-yl)-pyrimidin-2-yl]amine] | 11.6 | –
CCCCNc1nccc(N2CCN(C)CC2)n1 [Example 47, N-Butyl-4-(4-methylpiperazin-1-yl)pyrimidin-2-amine] | 33.2 | –
C[C@@H](Nc1nccc(N2CC[C@@H](N)C2)n1)c1ccccc1 [Example 175, 4-[(3R)-3-Aminopyrrolidin-1-yl]-N-[(1R)-1-phenylethyl]pyrimidin-2-amine] | 816 | –
CNC1CN(c2ccnc(NC(C)(C)C)c2)C1 [Example 280, N-tert-Butyl-4-[3-(methylamino)azetidin-1-yl]pyridin-2-amine] | 9.96 | –
N[C@@H]1CCN(c2ccnc(N[C@@H]3CCOC3)n2)C1 [Example 29, 4-[(3R)-3-Aminopyrrolidin-1-yl]-N-[(3R)-tetrahydrofuran-3-yl]pyrimidine-2-amine] | 58.5 | –
CN1CCN(c2ccnc(NCc3ccccn3)n2)CC1 [Example 62, 4-(4-Methylpiperazin-1-yl)-N-(pyridin-2-ylmethyl)pyrimidin-2-amine] | > 10000 | –
CC(C)Nc1nccc(N2CC(N)C2)n1 [Example 90, 4-(3-Aminoazetidin-1-yl)-N-(1-methylethyl)pyrimidin-2-amine] | 106 | 68.9
NC1CN(c2ccnc(NCC3CC3)n2)C1 [Example 86, 4-(3-Aminoazetidin-1-yl)-N-(cyclopropylmethyl)pyrimidin-2-amine] | 33.7 | –
C[C@@H](Nc1nccc(N2C[C@H]3CCN[C@H]3C2)n1)C1CCCCC1 [Example 115, N-[(1R)-1-Cyclohexylethyl]-4-[(3aR,6aR)-hexahydropyrrolo[3,4-b]pyrrol-5(1H)-yl]pyrimidin-2-amine] | 932 | –
CN[C@@H]1CCN(c2cnnc(NCC3CC3)c2)C1 [Example 99, N-(Cyclopropylmethyl)-5-[(3R)-3-(methylamino)pyrrolidin-1-yl]pyridazin-3-amine] | 23.9 | 23.9
COCCNc1cc(N2CC(N)C2)cnn1 [Example 335, 5-(3-Aminoazetidin-1-yl)-N-(2-methoxyethyl)pyridazin-3-amine] | > 10000 | –
CC1(C)[C@@H]2CC[C@@]1(C)[C@@H](Nc1nccc(N3C[C@H]4CCN[C@H]4C3)n1)C2 [Example 125, 4-[(3aR,6aR)-Hexahydropyrrolo[3,4-b]pyrrol-5(1H)-yl]-N-[(1R,2S,4R)-1,7,7-trimethylbicyclo[2.2.1]hept-2-yl]pyrimidin-2-amine] | 2.1 | –
CC(C)(C)CNc1cc(N2CCNCC2)cnn1 [Example 357, N-(2,2-Dimethylpropyl)-5-piperazin-1-ylpyridazin-3-amine] | 4370 | –
N[C@@H]1CCN(c2cnnc(NCc3ccc(F)cc3)c2)C1 [Example 342, 5-[(3R)-3-Aminopyrrolidin-1-yl]-N-(4-fluorobenzyl)pyridazin-3-amine] | 936 | –
CN1CCN(c2ccnc(NCc3ccccn3)c2)CC1 [Example 244, 4-(4-Methylpiperazin-1-yl)-N-(pyridin-2-ylmethyl)pyridin-2-amine] | 3880 | –
CN1CCN(c2ccnc(NCc3ccc(F)cc3)n2)CC1 [Example 58, N-(4-Fluorobenzyl)-4-(4-methylpiperazin-1-yl)pyrimidin-2-amine] | 342 | –
CN1CCN(c2cnnc(NC3CCCC3)c2)CC1 [Example 407, N-Cyclopentyl-5-(4-methylpiperazin-1-yl)pyridazin-3-amine] | 824 | –
CNC1CN(c2ccnc(NC3CC4CCC3C4)n2)C1 (stereo not shown) [Example 147, N-Bicyclo[2.2.1]hept-2-yl-4-[3-(methylamino)azetidin-1-yl]pyrimidin-2-amine] | 6.66 | –
c1cc(N2CCNCC2)nc(NC2CCCC2)n1 [Example 63, Cyclopentyl-(4-piperazin-1-yl-pyrimidin-2-yl)-amine] | 293 | –
COCCNc1nccc(N2CC[C@@H](N)C2)n1 [Example 59, 4-[(3R)-3-Aminopyrrolidin-1-yl]-N-(2-methoxyethyl)pyrimidin-2-amine] | 190 | –
c1cc(N2C[C@H]3CCN[C@H]3C2)cc(NC2C3CC4CC(C3)CC2C4)n1 (stereo partly drawn) [Example 266, Adamantan-2-yl-[4-(3aR,6aR)-(hexahydro-pyrrolo[3,4-b]pyrrol-5-yl)pyridin-2-yl]-amine] | 14.5 | –
CN[C@H]1CCN(c2cnnc(NCC(C)(C)CO)c2)C1 [Example 383, 2,2-Dimethyl-3-({5-[(3S)-3-(methylamino)pyrrolidin-1-yl]pyridazin-3-yl}amino)propan-1-ol] | 596 | –
N[C@@H]1CCN(c2ccnc(NCC3CCCC3)n2)C1 [Example 123, 4-[(3R)-3-Aminopyrrolidin-1-yl]-N-(cyclopentylmethyl)pyrimidin-2-amine] | 2.04 | –
COCCNc1cc(N2CCN(C)CC2)cnn1 [Example 405, N-(2-Methoxyethyl)-5-(4-methylpiperazin-1-yl)pyridazin-3-amine] | > 10000 | –
